Measurements: ChEMBL document CHEMBL1201862, “PubChem BioAssay data set” (2004)
Activity calls are given as the source filed them.

How the values were obtained:
[1] = viability of PTEN-deleted HCT116 cells – cell-based, HCT116 PTEN knockout, dose response (AID 1047); assay type: functional;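 further: HCT116 colon tumor cells with PTEN knocked out; cells exposed to compound for 60 hours before readout; potency for loss of cell viability measured by luminescence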
[2] = viability of HCT116 lacking mutant beta-catenin – cell-based, human colon tumor, dose response (AID 1045); assay type: functional;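 further: HCT116 colon tumor cells with beta catenin knocked out; cells exposed to compound for 60 hours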
[3] = target: T1, Heat shock factor protein 1 (Mus musculus, UniProt P38532); assay: enhancement of HSF1-driven luciferase signal – cell-based, NIH3T3, luminescence, dose retest, confirmation (AID 435004); assay type: functional;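 further: stress induced by proteasome inhibitor MG132 added 30 min after compound; luciferase reporter driven by HSF1 response element in NIH3T3 cells; actives raise luminescence as potentiators of the MG132 stress response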
T1 sequence (P38532 whole entry): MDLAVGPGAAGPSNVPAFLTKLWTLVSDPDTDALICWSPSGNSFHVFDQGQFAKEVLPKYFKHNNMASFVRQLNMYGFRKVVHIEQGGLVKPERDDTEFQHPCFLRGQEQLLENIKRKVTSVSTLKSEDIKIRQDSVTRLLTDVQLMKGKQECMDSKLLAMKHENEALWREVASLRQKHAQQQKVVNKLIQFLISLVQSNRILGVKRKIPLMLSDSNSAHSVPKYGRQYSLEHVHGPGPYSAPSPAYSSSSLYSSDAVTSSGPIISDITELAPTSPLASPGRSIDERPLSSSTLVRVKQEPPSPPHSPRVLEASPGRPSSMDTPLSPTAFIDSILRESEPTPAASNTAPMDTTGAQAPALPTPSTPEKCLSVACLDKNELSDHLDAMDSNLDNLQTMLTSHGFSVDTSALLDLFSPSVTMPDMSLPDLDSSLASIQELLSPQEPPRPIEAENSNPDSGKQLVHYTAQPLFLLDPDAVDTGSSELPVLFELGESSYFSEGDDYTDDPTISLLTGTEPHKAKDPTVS

[4] = Fluorescence-based cell-based high throughput dose response assay for inhibitors of the interaction of nucleotide-binding oligomerization domain containing 2 (NOD2) and the receptor-interacting serine-threonine kinase 2 (RIPK2).; assay type: functional; conditions: Homo sapiens
[5] = NIH-3T3 fibroblast cytotoxicity, dose response, cytotoxicity control, cell-based, fluorescence, Alamar Blue, secondary assay (AID 2327); assay type: functional;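 further: NIH-3T3 mouse fibroblasts cultured with fluconazole at 8 µg/mL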
[6] = fluconazole-exposed Candida albicans growth modulators – fluorescence, retest, confirmation (AID 2467); assay type: functional, cell-based
[7] = target: Dual specificity tyrosine-phosphorylation-regulated kinase 1A (Rattus norvegicus, UniProt Q63470); assay type: biochemical, Homo sapiens
HeLa = assay: ATP-based viability loss in HeLa cells – cell-based, CellTiter-Glo luminescence, cherry-pick samples, cytotoxicity control for MITF activator project, dose response (AID 540259); assay type: functional; conditions: Homo sapiens
[8] = target: T2, Carboxy-terminal domain RNA polymerase II polypeptide A small phosphatase 1 (Homo sapiens, UniProt Q9GZU7); assay: CTDSP1 inhibitors, concentration-response, biochemical, absorbance readout, ultra-high-throughput screen actives (AID 540297); assay type: functional
T2 sequence (Q9GZU7 whole entry): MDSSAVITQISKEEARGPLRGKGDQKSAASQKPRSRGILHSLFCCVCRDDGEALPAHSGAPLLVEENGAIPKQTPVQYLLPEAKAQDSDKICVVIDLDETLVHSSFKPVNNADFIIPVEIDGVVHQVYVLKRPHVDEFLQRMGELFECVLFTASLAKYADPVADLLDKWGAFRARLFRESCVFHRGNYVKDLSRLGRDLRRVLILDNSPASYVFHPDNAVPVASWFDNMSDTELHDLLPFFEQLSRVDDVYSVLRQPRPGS

[9] = blockers of HIV-1 envelope-mediated cell-cell fusion – cherry-pick, dose response (AID 652057); assay type: functional, cell-based
[10] = HIV-1 AD8 envelope cell-cell fusion blockers – cherry-pick, dose response (AID 652062); assay type: functional, cell-based;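 further: luciferase signal from cell-cell fusion driven by HIV-1 clade B AD8 Env; potency is for inhibitors of fusion seen as a drop in luminescence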
cells [11] = assay type: functional, cell-based
cells [12] = assay type: functional, cell-based; remark: listed apart in the source
[13] = target: Induced myeloid leukemia cell differentiation protein Mcl-1 (Homo sapiens, UniProt Q07820); assay type: functional
[14] = viability loss in THP-1 monocytes – THP-1 cells, cytotoxicity control for Vif-APOBEC3G degradation inhibitor project, dose response (AID 1117359); assay type: functional; conditions: THP-1
Escherichia coli = assay: microbe, parasite or virus in culture
[15] = Luminescence Cell-Based Dose Response HTS to Identify Activators of Luciferase Translation or Activity in H4 […] Cells. [Related pubchem assays: 1829 (Project Summary), 1814 (Primary HTS)]; assay type: functional
H4 = assay: Luminescence Cell-Based Dose Response HTS to Identify Activators of 5'UTR Stem-Loop Driven Prion Protein mRNA Translation in H4 Neuroglioblastoma Cells. [Related pubchem assays: 1829 (Project Summary), 1814 (Primary HTS)]; assay type: functional; conditions: Homo sapiens
[16] = Luminescence Cell-Based Dose Retest to Confirm Inhibitors of Cancer Stem Cells. [Related pubchem assays (depositor defined):AID2717, AID2721]; assay type: functional; conditions: Homo sapiens
INS1 = assay: INS-1E survival protection against cytokine death – cell-based, luminescence, retest, dose response (AID 449756); assay type: functional; conditions: Rattus norvegicus;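 further: cell death triggered by IL-1 beta plus TNF-alpha plus IFN-gamma mixture; protective hits raise ATP signal compared with cytokine alone wells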
[17] = target: Endoplasmic reticulum aminopeptidase 1 (Homo sapiens, UniProt Q9NZ08); assay: inhibition of human ERAP1 enzyme activity – biochemical, cherry-pick, set 2, plate reader, dose response (AID 743314)
[18] = intracellular Trypanosoma cruzi inhibitors in host cells – cell-based, plate reader, cherry-pick samples, set 3, dose response (AID 651818); assay type: functional;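 further: compounds incubated with infected cells for about four days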
[19] = off-target signal loss in HeLa-CEM21 co-culture – HeLa F-luc CTL cells, cherry-picked, counter-screen for HIV-1 Env fusion inhibitor project, dose response (AID 652040); assay type: functional, cell-based;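 further: potency for signal decrease marking cytotoxic or nonspecific inhibition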
[20] = viability of uninfected HEp-2 cells – cell-based, HTS, cytotoxicity control for RSV inhibitor project, dose response (AID 2410); assay type: functional; conditions: human respiratory syncytial virus
Cytochrome P450 1A2 = target: T3, Cytochrome P450 1A2 (Homo sapiens, UniProt P05177);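 further: PubChem cytochrome P450 panel assay, CYP1A2 panel member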
T3 sequence (P05177 whole entry): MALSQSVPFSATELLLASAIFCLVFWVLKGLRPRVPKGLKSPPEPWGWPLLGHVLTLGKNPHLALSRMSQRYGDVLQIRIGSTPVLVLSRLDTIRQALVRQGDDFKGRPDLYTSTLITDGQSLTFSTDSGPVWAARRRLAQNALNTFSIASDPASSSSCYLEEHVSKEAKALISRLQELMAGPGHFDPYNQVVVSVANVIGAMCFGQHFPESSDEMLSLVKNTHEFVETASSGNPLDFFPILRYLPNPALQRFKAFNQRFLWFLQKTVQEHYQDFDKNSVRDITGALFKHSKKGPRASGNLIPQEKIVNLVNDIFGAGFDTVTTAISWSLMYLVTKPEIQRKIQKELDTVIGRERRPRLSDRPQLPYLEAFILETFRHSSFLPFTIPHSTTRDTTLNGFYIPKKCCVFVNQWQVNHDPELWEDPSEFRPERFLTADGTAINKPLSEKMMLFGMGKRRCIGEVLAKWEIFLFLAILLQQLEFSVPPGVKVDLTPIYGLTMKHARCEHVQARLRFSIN

Cytochrome P450 3A4 = Cytochrome P450 3A4 (Homo sapiens, UniProt P08684);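 further: CYP3A4 tested as one member of a cytochrome P450 panel screen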
Cytochrome P450 2C9 = Cytochrome P450 2C9 (Homo sapiens, UniProt P11712)
Cytochrome P450 2D6 = Cytochrome P450 2D6 (Homo sapiens, UniProt P10635);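 further: CYP2D6 member of a cytochrome P450 panel assay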
Cysteine protease ATG4B = target: T4, Cysteine protease ATG4B (Homo sapiens, UniProt Q9Y4P1); assay type: functional;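 further: Fluorescence-based dose-response confirmation assay measuring inhibition of ATG4B activity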
T4 sequence (Q9Y4P1 whole entry): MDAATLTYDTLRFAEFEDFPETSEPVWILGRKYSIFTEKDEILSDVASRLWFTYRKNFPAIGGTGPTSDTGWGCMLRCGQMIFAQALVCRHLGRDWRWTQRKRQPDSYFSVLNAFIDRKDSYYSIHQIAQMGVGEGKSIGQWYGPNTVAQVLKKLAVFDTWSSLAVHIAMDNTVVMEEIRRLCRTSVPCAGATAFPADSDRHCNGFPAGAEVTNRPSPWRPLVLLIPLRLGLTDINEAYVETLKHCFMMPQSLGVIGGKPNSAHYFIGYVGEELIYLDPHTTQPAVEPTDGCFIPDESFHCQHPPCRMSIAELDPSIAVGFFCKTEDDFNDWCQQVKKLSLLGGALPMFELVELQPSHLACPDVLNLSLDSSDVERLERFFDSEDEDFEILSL

Phospholipase A2 = Phospholipase A2 (Homo sapiens, UniProt P04054); assay type: functional;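 further: confirmatory dose-response counterscreen on phospholipase A2, testing hits that came from an ultra-high-throughput screen for ATG4B inhibitors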
[21] = target: T5, Long-chain-fatty-acid--AMP ligase FadD28 (Mycobacterium tuberculosis, UniProt P9WQ59); assay: Fluorescence polarization aasay to screen for inhibitors that compete for the binding of FadD28 to a bisubstrate Measured in Biochemical System Using Plate Reader - 2147-01_Inhibitor_Dose_CherryPick_Activity.; assay type: functional, Mycobacterium tuberculosis H37Rv
T5 sequence (P9WQ59 whole entry): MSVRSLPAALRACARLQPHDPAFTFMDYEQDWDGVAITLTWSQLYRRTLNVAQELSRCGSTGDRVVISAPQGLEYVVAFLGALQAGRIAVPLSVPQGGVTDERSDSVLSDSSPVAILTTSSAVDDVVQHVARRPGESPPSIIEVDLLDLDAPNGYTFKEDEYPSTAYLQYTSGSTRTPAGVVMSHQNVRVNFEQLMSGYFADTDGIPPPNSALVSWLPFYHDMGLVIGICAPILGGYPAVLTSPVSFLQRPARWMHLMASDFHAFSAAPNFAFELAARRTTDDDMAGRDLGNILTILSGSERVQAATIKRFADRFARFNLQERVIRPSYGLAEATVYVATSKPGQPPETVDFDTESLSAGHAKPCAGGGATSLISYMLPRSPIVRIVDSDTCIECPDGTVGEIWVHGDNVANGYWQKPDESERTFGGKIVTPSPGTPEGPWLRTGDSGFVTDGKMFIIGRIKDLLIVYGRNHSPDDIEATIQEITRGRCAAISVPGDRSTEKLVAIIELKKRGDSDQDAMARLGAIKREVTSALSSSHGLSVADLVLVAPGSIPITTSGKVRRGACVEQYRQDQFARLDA

[22] = HEK-293T cell viability reduction – luminescence, B-cell screen hits, cytotoxicity control for BCR NF-kB inhibitor project, dose response (AID 489021); assay type: functional, cell-based;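 further: HEK-293T cells carrying an NF-kB luciferase reporter; cells exposed to compound for about 14 hours before viability readout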

Phospholipase A2, sequence (P04054 whole entry): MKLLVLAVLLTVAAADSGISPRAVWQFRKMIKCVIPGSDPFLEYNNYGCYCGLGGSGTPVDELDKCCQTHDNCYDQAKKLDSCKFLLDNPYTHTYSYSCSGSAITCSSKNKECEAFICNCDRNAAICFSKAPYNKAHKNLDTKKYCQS
Endoplasmic reticulum aminopeptidase 1, sequence (Q9NZ08 whole entry): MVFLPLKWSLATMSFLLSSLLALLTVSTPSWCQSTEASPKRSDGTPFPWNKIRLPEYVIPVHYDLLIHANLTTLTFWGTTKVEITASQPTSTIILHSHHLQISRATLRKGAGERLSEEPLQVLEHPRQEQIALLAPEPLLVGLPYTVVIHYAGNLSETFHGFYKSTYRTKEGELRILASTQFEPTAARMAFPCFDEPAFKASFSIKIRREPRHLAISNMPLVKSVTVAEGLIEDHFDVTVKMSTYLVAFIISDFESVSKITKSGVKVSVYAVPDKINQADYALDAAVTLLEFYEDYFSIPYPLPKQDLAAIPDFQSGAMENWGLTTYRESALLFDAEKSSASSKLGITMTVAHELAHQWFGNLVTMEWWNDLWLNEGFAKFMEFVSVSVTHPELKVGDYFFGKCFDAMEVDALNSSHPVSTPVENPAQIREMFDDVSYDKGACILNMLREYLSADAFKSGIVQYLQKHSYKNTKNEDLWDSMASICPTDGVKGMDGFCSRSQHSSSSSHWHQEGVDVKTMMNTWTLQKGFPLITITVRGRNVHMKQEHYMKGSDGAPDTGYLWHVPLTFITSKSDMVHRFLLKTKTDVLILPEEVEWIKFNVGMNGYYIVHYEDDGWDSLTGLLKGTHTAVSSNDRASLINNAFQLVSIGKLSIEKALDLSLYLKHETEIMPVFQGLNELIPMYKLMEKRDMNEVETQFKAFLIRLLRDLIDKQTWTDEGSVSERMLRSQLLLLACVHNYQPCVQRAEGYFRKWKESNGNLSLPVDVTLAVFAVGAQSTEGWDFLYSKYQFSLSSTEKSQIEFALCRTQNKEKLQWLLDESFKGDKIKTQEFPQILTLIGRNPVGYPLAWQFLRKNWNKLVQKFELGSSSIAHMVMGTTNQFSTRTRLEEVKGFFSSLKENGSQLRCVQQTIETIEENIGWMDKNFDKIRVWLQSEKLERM
Induced myeloid leukemia cell differentiation protein Mcl-1, sequence (Q07820 whole entry): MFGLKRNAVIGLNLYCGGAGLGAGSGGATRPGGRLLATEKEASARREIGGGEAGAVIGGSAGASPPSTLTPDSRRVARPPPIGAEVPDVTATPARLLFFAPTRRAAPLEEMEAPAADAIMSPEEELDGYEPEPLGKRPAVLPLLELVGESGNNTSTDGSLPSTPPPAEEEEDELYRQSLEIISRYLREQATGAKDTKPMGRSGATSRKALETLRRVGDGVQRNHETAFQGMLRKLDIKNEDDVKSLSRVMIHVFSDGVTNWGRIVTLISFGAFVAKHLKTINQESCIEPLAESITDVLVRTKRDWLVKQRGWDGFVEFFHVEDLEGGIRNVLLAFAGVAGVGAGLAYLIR
Cytochrome P450 3A4, sequence (P08684 whole entry): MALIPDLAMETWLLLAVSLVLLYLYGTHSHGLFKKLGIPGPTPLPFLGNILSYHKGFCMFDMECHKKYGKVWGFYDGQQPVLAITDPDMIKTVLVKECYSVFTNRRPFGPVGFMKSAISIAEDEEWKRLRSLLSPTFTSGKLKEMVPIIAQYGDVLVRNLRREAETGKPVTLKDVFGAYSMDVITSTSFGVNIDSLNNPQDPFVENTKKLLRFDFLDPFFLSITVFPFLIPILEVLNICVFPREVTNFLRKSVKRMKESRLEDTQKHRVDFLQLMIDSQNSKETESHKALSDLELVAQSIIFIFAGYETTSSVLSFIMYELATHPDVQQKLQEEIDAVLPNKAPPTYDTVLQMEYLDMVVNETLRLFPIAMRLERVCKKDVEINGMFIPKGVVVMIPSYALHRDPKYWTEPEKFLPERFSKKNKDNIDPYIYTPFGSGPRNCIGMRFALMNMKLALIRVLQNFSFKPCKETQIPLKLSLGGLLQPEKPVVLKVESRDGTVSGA
Cytochrome P450 2D6, sequence (P10635 whole entry): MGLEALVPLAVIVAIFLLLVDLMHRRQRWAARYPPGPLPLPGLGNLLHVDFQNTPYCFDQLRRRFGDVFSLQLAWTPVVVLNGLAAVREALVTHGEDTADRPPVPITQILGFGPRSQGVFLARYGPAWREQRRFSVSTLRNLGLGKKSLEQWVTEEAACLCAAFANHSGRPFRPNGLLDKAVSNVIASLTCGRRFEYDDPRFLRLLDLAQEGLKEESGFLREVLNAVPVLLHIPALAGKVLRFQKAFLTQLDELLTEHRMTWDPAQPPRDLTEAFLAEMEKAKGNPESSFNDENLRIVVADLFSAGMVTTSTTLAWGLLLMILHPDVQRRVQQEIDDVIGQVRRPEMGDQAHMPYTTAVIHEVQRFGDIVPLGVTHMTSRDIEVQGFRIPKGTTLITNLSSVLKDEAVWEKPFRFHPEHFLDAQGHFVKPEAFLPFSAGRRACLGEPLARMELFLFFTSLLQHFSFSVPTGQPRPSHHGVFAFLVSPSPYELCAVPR
Cytochrome P450 2C9, sequence (P11712 whole entry): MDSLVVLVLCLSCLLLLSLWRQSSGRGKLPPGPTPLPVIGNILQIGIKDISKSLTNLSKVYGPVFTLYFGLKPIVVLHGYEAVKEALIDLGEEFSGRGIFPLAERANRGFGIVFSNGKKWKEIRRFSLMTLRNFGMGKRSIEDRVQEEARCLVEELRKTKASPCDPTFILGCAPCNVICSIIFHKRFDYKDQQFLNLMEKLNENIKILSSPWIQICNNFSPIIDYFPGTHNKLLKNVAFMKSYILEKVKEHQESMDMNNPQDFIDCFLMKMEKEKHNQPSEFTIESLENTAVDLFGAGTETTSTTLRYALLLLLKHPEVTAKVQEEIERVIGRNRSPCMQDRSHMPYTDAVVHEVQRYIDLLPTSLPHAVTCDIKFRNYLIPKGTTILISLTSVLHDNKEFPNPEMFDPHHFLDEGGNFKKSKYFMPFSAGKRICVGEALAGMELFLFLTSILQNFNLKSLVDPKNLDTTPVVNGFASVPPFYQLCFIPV

Cc1cc(SC#N)cc(C)c1NC(=O)CCl
EC50 [1]: 19.8 µM (active)
EC50 [2]: 17.4 µM (active)
EC50 [3]: 5.97 µM (active)
IC50 [4]: 11.1 µM (inactive)

Nc1nn2c(O)cc(-c3ccccc3)nc2c1N=Nc1ccc(S(N)(=O)=O)cc1
EC50 [5]: > 160 µM (inactive)
EC50 [6]: > 38 µM (not active)
AC50 [7]: 1.3 µM (active)

O=C(NCCc1c[nH]c2ccccc12)c1cc(Cl)c2c(c1)OCO2
AC50 (HeLa): 70.3 µM (active)

CCOC(=O)C1(C)C(C(=O)OC)=C(c2ccc(OC)cc2)c2ccccc2N1C(=O)OC (configuration not stated)
IC50 [8]: 29.5 µM (active)

Cc1noc(C)c1S(=O)(=O)N(C)C[C@@H]1Oc2ccc(NC(=O)Cc3ccccc3)cc2CC(=O)N([C@H](C)CO)C[C@@H]1C
AC50 [9]: < 0.26 µM (active)
AC50 [10]: 2.92 µM (active)

C[C@@H]1O[C@@H](OC[C@H]2O[C@@H](Oc3c(-c4ccc(O)cc4)oc4cc(O)cc(O)c4c3=O)[C@H](O)[C@@H](O)[C@@H]2O)[C@H](O)[C@H](O)[C@H]1O [NICOTIFLOROSIDE]
EC50 (cells [11]): > 350 µM (not active)
EC50 (cells [12]): > 350 µM (not active)
AC50 [7]: 7.78 µM (active)

CC(=O)c1ccc(NC(=O)CSc2nnc(-c3ccco3)c(-c3ccco3)n2)cc1
IC50 [13]: 8.94 µM (active)
IC50 [8]: 3.88 µM (active)
CC50 [14]: > 40 µM (active)

Cc1ccc(-c2cc(C(F)F)n3ncc(C(=O)Nc4ccc(S(=O)(=O)Nc5ccccc5C)cc4)c3n2)cc1
AC50 (Escherichia coli): 21.5 µM (active)

COc1ccc(-c2nnn(Cc3ccccc3F)n2)cc1
EC50 [15]: 1.75 µM (active)
EC50 (H4): 44.6 µM (inconclusive)
AC50 (HeLa): 60.2 µM (active)

CC(=O)O[C@H](COc1c2ccoc2cc2oc(=O)ccc12)C(C)(C)O
AC50 [7]: 3.74 µM (active)

CCCCNc1c(-c2ccc(-c3cccc(Cl)c3)cc2)nc2ccccn12
AC50 [16]: 3.86 µM (active)
AC50 (INS1): 6.04 µM (active)
AC50 (HeLa): 32.4 µM (active)

O=C([C@@H]1[C@@H](CO)[C@@H]2Cn3c(ccc(/C=C/c4ccccc4)c3=O)[C@@H]2N1CC1CC1)N1CCOCC1
AC50 [17]: 13.7 µM (active)

C[C@H]1CN([C@@H](C)CO)C(=O)Cc2cc(NS(=O)(=O)c3ccc(Cl)cc3)ccc2O[C@H]1CN(C)CC1CCCCC1
AC50 [18]: 5.05 µM (active)

C[C@@H]1CCCCO[C@@H](CN(C)Cc2ccc(C(=O)Nc3ccccc3N)cc2)[C@@H](C)CN([C@H](C)CO)C(=O)c2cc(NC(=O)Nc3ccc(C(F)(F)F)cc3)ccc2O1
AC50 [18]: 0.554 µM (active)

C[C@@H]1CN([C@@H](C)CO)C(=O)Cc2cc(NC(=O)Nc3ccc(C(F)(F)F)cc3)ccc2O[C@@H]1CN(C)S(=O)(=O)c1cccs1
AC50 [18]: 3.54 µM (active)

O=C1c2cccc(OCc3ccc(F)cc3)c2CCN1Cc1ccccc1
AC50 [19]: 4.11 µM (active)
AC50 [10]: 10.1 µM (active)

CN(CCC#N)C(=O)c1cc2c(s1)-c1ccccc1SC2
CC50 [20]: 28 µM (active)
AC50 (HeLa): 63.4 µM (active)

C[C@@H]1CN([C@H](C)CO)C(=O)c2cccc(NC(=O)c3cnccn3)c2O[C@@H]1CN(C)Cc1ccc(C(=O)Nc2ccccc2N)cc1
AC50 [18]: 3.06 µM (active)

COc1cc(/C=C(\C#N)c2nn(CCO)c(N)c2C#N)cc(OC)c1OC
AC50 (Escherichia coli): 29 µM (active)

CCC(=O)Nc1ccc(C(=O)Cn2ncc(Cl)c(Cl)c2=O)cc1
AC50 [16]: 5.04 µM (active)
IC50 [4]: 6.53 µM (active)

Cc1cc2ccccc2nc1SCC(=O)Nc1nc(-c2ccccc2)cs1
AC50 (Cytochrome P450 1A2): 0.2 µM (inconclusive)
AC50 (Cytochrome P450 3A4): 0.178 µM (inconclusive)
AC50 (Cytochrome P450 2C9): 1.12 µM (inconclusive)
AC50 (Cytochrome P450 2D6): inconclusive

O=C(O)c1cc(Br)ccc1NN=C1CCCCC1
IC50 (Cysteine protease ATG4B): 13.4 µM (active)
IC50 (Phospholipase A2): 9.4 µM (active)
AC50 [21]: > 100 µM (inactive)

CCOc1ccc(/C=C2\SC(=S)N(CCC(=O)Nc3cccc(C(=O)O)c3)C2=O)cc1
IC50 [22]: > 80 µM (inactive)
IC50 [8]: 3.77 µM (active)

CCCCSc1nc2c(c(=O)[nH]c(=O)n2C)n1CCc1ccccc1
AC50 (Escherichia coli): 50.8 µM (active)
